Assay results as given in US10125168B2, “Synthetic peptide for adjusting balance between presence of type 1 TNF receptor and type 2 TNF receptor and use thereof” (TOAGOSEI CO., LTD., priority 2012, dated 2018).

How the values were obtained:
TNF-R1 [1] = assay: Immunofluorescence / flow cytometry of TNF-R1 presence in human SK-N-SH cells supplied with peptide; format: cell-based; conditions: human cell line SK-N-SH, retinoic acid induction, peptide 5 μM, two days; fluorescence intensity relative to control group = 1 (FIG. 2)
Description: The activities of the respective peptides synthesized in Example 1 above were tested with cultured cells of a human neuroblastoma cell line (SK-N-SH). The control group was supplied with no peptides. The test details are described below.
Firstly, each peptide synthesized in Example 1 above was dissolved in DMSO to prepare a stock solution having a peptide concentration of 4 mM.
The SK-N-SH cell line was then seeded in a 4 mL fraction in a culture dish of 6 cm diameter at a density of 1.5×10^5 cells/mL and incubated overnight in a general DMEM culture medium (with 10% FBS (a Hyclone product, KSD), 2 mM L-glutamine, 50 unit/mL penicillin, and 50 μg/mL streptomycin) at 37° C. in a CO2 incubator at 5% CO2. Due to a low cell density, incubation was carried on for one more days.
After incubated over two nights, the culture medium was replaced with a fresh DMEM culture medium (with 2% FBS, 20 μM retinoic acid, 2 mM L-glutamine, 50 unit/mL penicillin, and 50 μg/mL streptomycin). Incubation was carried on for five days under the same conditions to effect retinoic acid induction.
Subsequently, the culture medium was replaced with a DMEM culture medium containing a peptide (TNF-R2 upregulating peptide or TNF-R2 downregulating peptide) in an amount equivalent to 5 μM, in addition to 2% FBS, 20 μM retinoic acid, 2 mM L-glutamine, 50 unit/mL penicillin and 50 μg/mL streptomycin (also containing 5 μL of DMSO at this point). Incubation was carried on under the same conditions for two days.
The control group (group supplied with no peptide) was incubated for two days in a DMEM culture medium (with 2% FBS, 20 μM retinoic acid, 20 μM retinoic acid, 2 mM L-glutamine, 50 unit/mL penicillin, and 50 μg/mL streptomycin) supplied only with the aforementioned amount of DMSO, without any added peptide.
(§1) After completion of the incubation, cultured cells in each test group were collected and divided into certain test tubes in fractions having the same number of cells. By the immunofluorescence technique described below, the change in the balance between the presence of TNF-R1 and TNF-R2 was then assessed in each test group (group supplied with TNF-R2 upregulating peptide, group supplied with TNF-R2 downregulating peptide).
More specifically, in each test group, for the TNF-R1 measurement, an anti-TNF-R1 mouse polyclonal antibody (a Santa Cruz Biotechnology Inc. product, SC-52739) was added to the respective test tubes to a final concentration of 2×10^−3 mg/mL and incubation was carried out under ice-cold conditions for a prescribed time period. As a secondary antibody, a goat anti-mouse IgG antibody (an Invitrogen product, A10029) labeled with a fluorescent dye (Alexa® 488) was added to the test tubes to a final concentration of 4×10^−3 mg/mL and incubation was carried out under ice-cold conditions for a prescribed time period.
(§2) In the same manner as Example 2 above, the fluorescence intensities of cells were measured with a flow cytometer. For both TNF-R1 and TNF-R2, the fluorescence intensities are shown as relative values with the fluorescence intensities of TNF-R1 and TNF-R2 in the control group (group supplied with no peptide) being 1, respectively.

TNF-R1 [2] = assay: Immunofluorescence / flow cytometry of TNF-R1 presence in mouse Neuro 2a cells supplied with peptide; format: cell-based; conditions: mouse cell line Neuro 2a, retinoic acid induction, peptide 5 μM, two days; fluorescence intensity relative to control group = 1 (FIG. 1)
Description: The activities of the peptides of Sample 1 and Sample 6 synthesized in Example 1 above were tested with cultured cells of a mouse […], neuroblastoma cell line (Neuro 2a). The control group was supplied with no peptides. The test details are described below.
Firstly, each peptide synthesized in Example 1 above was dissolved in PBS (phosphate buffered saline) to prepare a stock solution having a peptide concentration of 1 mM (with a small amount of dimethyl sulfoxide (DMSO)). […]
as §1, with “peptide). […]” for “peptide).”
as §2, with “The” for “In the same manner as Example 2 above, the”, “cytometer (a Millipore system product, Guava® easyCyte 8HT).” for “cytometer.”

| Sequence | presence of TNF-R1 (TNF-R1 [1]) | presence of TNF-R1 (TNF-R1 [2]) |
| --- | --- | --- |
| MAPAALWVALVFELQLWATGHT (listed as Mus musculus) [Sample 7, TNF-R2 downregulating peptide; mouse TNF-R2 signal peptide motif, linear, 22 amino acid residues] | no significant change | – |
| MAPVAVWAALAVGLELWAAAHA (listed as Homo sapiens) [Sample 6, TNF-R2 downregulating peptide; human TNF-R2 signal peptide motif, linear, 22 amino acid residues] | no significant change | no significant change |
| MGLPTVPGLLLSLVLLALLMG (listed as Mus musculus) [Sample 2, TNF-R2 upregulating peptide; mouse TNF-R1 signal peptide motif, linear, 21 amino acid residues] | no significant change | – |
| MGLSTVPDLLLPLVLLELLVG (listed as Homo sapiens) [Sample 1, TNF-R2 upregulating peptide; human TNF-R1 signal peptide motif, linear, 21 amino acid residues] | no significant change | no significant change |
| MGLSTVPGLLLPLVLRALLVD (listed as Sus scrofa) [Sample 5, TNF-R2 upregulating peptide; pig TNF-R1 signal peptide motif, linear, 21 amino acid residues] | no significant change | – |
